Assay results taken from patent US7544377B2, “Chewable compositions with fast release magnolia bark extract” (GIC Innovations Company, priority 2005, dated 2009).

How the values were obtained:
incubated saliva = assay: MIC of surface active agents and emulsifiers, two-fold broth dilution; format: cell-based; settings: 24 hours at 37° C., lowest dilution not turbid
Description: (§1) To evaluate the germ-kill efficacy and synergist effect when two or more germ-kill actives are combined, testing was performed to determine the ratio of MBE to surface active agent. The germ-kill active and/or surface active agent were dissolved in ethanol or sterile water to give an initial concentration 0.1% to 1%. The solution was diluted with a nutrient broth to give an initial concentration of 0.05% to 0.5%, which was then serially diluted two-fold so that each subsequent dilution contained 50% of the compound concentration of the previous dilution while maintaining a constant level of nutrients for each dilution. These dilutions were inoculated with representative oral microorganisms, or incubated saliva, and incubated for 24 hours at 37° C. For each surface active agent, the lowest dilution that was not turbid was registered as the MIC. The MBC was determined by transferring 10 microliter of liquid from non-turbid tubes to fresh growth media and incubated for 48 hours.

S. mutans = assay: MIC and fractional inhibitory index of MBE / surface active agent combinations; format: cell-based, Streptococcus mutans; settings: 24 hours at 37° C.
Description: as §1
(1) where an FIC value of less than 1.0 is synergistic, an FIC between 1.0 and 2.0 is additive, and an FIC greater than 2.0 is antagonistic.

[1] = test system: bacteria from freshly-collected simulated whole saliva (biofilm); assay: Mixed culture saliva biofilm on saliva-coated hydroxyapatite discs, timed exposure to actives; format: cell-based; settings: for % OD reduction (600 nm): Table 8
Description: Although useful to show the comparative effect of Magnolia Bark Extract on biofilm formation and MIC growth, the foregoing test procedure may not effectively mimic the in vivo exposure of an oral care product to a developing plaque biofilm. In an in vivo situation, the active could be exposed to the plaque for a defined period of time at a set frequency (for example, for 5 minutes, three times a day). Therefore, a series of comparative experiments were conducted to mimic the in vivo use of potential active ingredients. To perform the tests the saliva compositions listed below in Tables 2 and 3 were prepared.
A mixed culture system that utilizes the bacteria from freshly-collected simulated whole saliva was used. Saliva cell pellets were used to inoculate saliva-coated hydroxyapatite (S-HA) discs. The discs were placed in 24-well cell culture plates and incubated for up to 3 days. Biofilms were exposed to actives on days 2 and 3 (starting at 18 hours), and quantified on day 4. The number of bacteria was determined by spectrophotometric absorbance or optical density (OD) at 600 nm. The five phases of the experiment were: pellicle formation; bacterial attachment; biofilm growth; exposure to actives; and bacterial enumeration.
To form the pellicles, HA Discs were ultrasonically washed in deionized water and air-dried, then autoclaved. The discs were placed in a 24-well plate with 1 ml 50% sterile saliva (1 part sterile whole saliva: 1 part saliva buffer, filter sterilize after preparation) for 2 hours on slow agitation at room temperature. The saliva was suctioned and then the discs were transferred to fresh wells for bacterial attachment.
To form the biofilms, the bacterial suspension was removed, and the discs were transferred to fresh wells. One ml of supplemented saliva medium was added and the plate was placed in the incubator for overnight incubation and for the duration of the experiment (up to 72 hours).
A stock solution of 1% Magnolia Bark Extract in 60% ethanol was prepared. Magnolia Bark Extract samples were prepared having a concentration range of 125, 250, 500, and 1000 μg/ml (ppm) in a Phosphate-Buffered-Saline (PBS) solution, where the negative control was PBS and the positive control was CHX having a concentration of 0.12%.
One-ml quantities of active ingredients and controls were placed into fresh wells, and the discs were transferred to these wells for 5 minutes. The chlorhexidine control exposure was one minute, two times a day to mimic the standard mouth-rinse procedure. The exposure to active ingredient was carried out at 8:00 AM, 12:00 and 4:00 PM. After the timed exposure, the solution was removed and the discs washed twice with PBS and then transferred to fresh medium. For some experiments, the medium used during the day was TSB (Tryptic Soy Broth) with a 50 μl 40% sterile sucrose solution added to each well (to give a 2% sucrose solution). The medium was not replaced after the mid-day exposure.
After overnight incubation (day 2), discs were exposed to controls and actives. On day 3 the biofilms were again exposed to tests and controls. On day 4 the discs were removed from the medium, the medium pH was measured to obtain an indication of metabolic activity, and the discs were placed into tubes with 2.5 ml PBS, vortexed for 20 sec, and then placed into the ultrasonic bath for another 20 sec. The suspension was transferred into cuvettes and the bacterial cell density determined by OD measurements at 600 nm.
To evaluate the effect of Magnolia Bark Extract in combination with the surface active agent, sodium lauryl sulfate, five active ingredient solutions were prepared using the procedures described above. […] Also, the MBE solutions were prepared to have a concentration of 500 ppm. Sodium lauryl sulfate was added to two of the Magnolia Bark Extract solutions to obtain SLS concentrations of 0.05% and 0.1% in the Magnolia Bark Extract solutions. […]

Sucrose Stearate
MIC (ppm) (incubated saliva): >500 ppm

Sodium Brasslate
MIC (ppm) (incubated saliva): 500 ppm

Sucrose Distearate
MIC (ppm) (incubated saliva): >500 ppm

N=C(NCCCCCCNC(=N)NC(=N)Nc1ccc(Cl)cc1)NC(=N)Nc1ccc(Cl)cc1.O=C(O)[C@H](O)[C@@H](O)[C@H](O)[C@H](O)CO.O=C(O)[C@H](O)[C@@H](O)[C@H](O)[C@H](O)CO [Chlorhexidine gluconate]
MIC (ppm) (incubated saliva): 2 ppm | MIC/ppm (S. mutans): 2 ppm

[H]/N=C(\N/C(=N/[H])NCCCCCCNC(=N)NC(=N)Nc1ccc(Cl)cc1)Nc1ccc(Cl)cc1 [CHX, chlorhexidine]
pH (medium pH, indication of metabolic activity) ([1]; Table 5, CHX 0.12%, exposure one minute, two times a day): 8.8 | % OD reduction (600 nm, compared to PBS control) ([1]; Table 6, CHX 0.12%, exposure one minute, two times a day): 84% | pH (medium pH, indication of metabolic activity) ([1]; Table 7, CHX 0.1% (1000 ppm)): 8.8 | % OD reduction (600 nm) ([1]; CHX 0.1% (1000 ppm)): 94%

CCCCCCCCCCCCOS(=O)(=O)[O-].[Na+] [SLS, sodium lauryl sulfate]
pH (medium pH, indication of metabolic activity) ([1]; Table 7, SLS 1000 ppm): 5.7 | % OD reduction (600 nm) ([1]; SLS 1000 ppm): 61%

Sodium Stearoyl Lactylate
MIC (ppm) (incubated saliva): >3000 ppm
